Reference: patent US11925629B2, “Heterocyclic inhibitors of ERK1 and ERK2 and their use in the treatment of cancer” (Asana Biosciences, LLC, priority 2015, dated 2024)

How the values were obtained:
[1] = test system: HT-29 (colorectal carcinoma, B-RafV600E) cells; assay: Cell proliferation (Alamar Blue) assay, HT-29; assay type: cell-based, human
Procedure: (§1) Cell Proliferation (Alamar Blue) Assay
(§2) HT-29 (colorectal carcinoma, B-RafV600E), HCT116 (colorectal carcinoma, K Ras G13D), A375 (melanoma, B-RafV600E) and SK-Mel2 (melanoma, NRAS Q61R) cells (obtained from ATCC, USA) were seeded (5000 cells/well) in 96-well tissue culture plate and incubated at 37° C./5% CO2 for 16-24 hours. The cells were then treated with compounds, at concentrations typically from 0.0005 to 10 uM prepared in 3-fold serial dilutions. The plates were then incubated for 72 h at 37° C./5% CO2 in a moist environment. Then Alamar Blue™ reagent (final concentration 1×) was added to each well and incubated for 1-3 h at 37° C./5% CO2. The plates were read on fluorescence reader at 540 nm excitation and 590 nm emission wavelengths. The IC50 values were subsequently determined using a sigmoidal dose-response curve (variable slope) using GraphPad Prism® 5 software.

[2] = test system: HCT116 (colorectal carcinoma, K Ras G13D) cells; assay: Cell proliferation (Alamar Blue) assay, HCT116; assay type: cell-based, human
Procedure: as §1, §2

[3] = Homo sapiens, HT-29, HT29 cells
[4] = Homo sapiens, HCT-116, HCT116 cells

Row | SMILES | IC50 ([1]; HT29 cells) | IC50 ([2]; HCT116 cells) | IC50 [1, 3] | IC50 [2, 4]
1 | Cc1cnc(Nc2ccccc2Cl)nc1-n1cc(NC(=O)N[C@H](CO)c2cccc(Cl)c2)cn1 [Cmpd 2, (S)-1-(1-(3-chlorophenyl)-2-hydroxyethyl)-3-(1-(2-((2-chloro-phenyl)amino)-5-methylpyrimidin-4-yl)-1H-pyrazol-4-yl)urea] | – | – | > 2500 nM | > 2500 nM
2 | O=C(Nc1cnn(-c2ccnc(Nc3ccc(F)cc3Cl)n2)c1)N[C@H](CO)c1cccc(Cl)c1 [Cmpd 20, (S)-1-(1-(2-((2-chloro-4-fluoro-phenyl)amino)pyrimidin-4-yl)-1H-pyrazol-4-yl)-3-(1-(3-chloro-phenyl)-2-hydroxyethyl) urea] | – | – | – | > 2500 nM
3 | Cc1cnc(NC2CC2)nc1-n1cc(C(=O)N[C@H](CO)c2cccc(Cl)c2)cn1 [Cmpd 39, (S)-N-(1-(3-chlorophenyl)-2-hydroxy-ethyl)-1-(2-(cyclopropyl-amino)-5-methyl-pyrimidin-4-yl)-1H-pyrazole-4-carboxamide] | – | – | > 2500 nM | > 2500 nM
4 | Cc1cnc(Nc2ccc3c(c2)OCO3)nc1-n1cc(NC(=O)N[C@H](CO)c2ccccc2)cn1 [Cmpd 55, (S)-1-(1-(2-(benzo[d][1,3]dioxol-5-ylamino)-5-methyl-pyrimidin-4-yl)-1H-pyrazol-4-yl)-3-(2-hydroxy-1-phenylethyl) urea] | – | – | > 2500 nM | > 2500 nM
5 | O=C(Nc1cnn(-c2ccnc(Nc3ccccc3Cl)n2)c1)N[C@H](CO)c1cccc(Cl)c1 [Example 1, (S)-1-(1-(3-chlorophenyl)-2-hydroxyethyl)-3-(1-(2-((2-chloro-phenyl)amino)pyrimidin-4-yl)-1H-pyrazol-4-yl) urea] | – | – | – | > 2500 nM
6 | Cc1cnc(NC2CC2)nc1-n1cc(NC(=O)N[C@H](CO)c2cccc(Cl)c2)cn1 [Example 3, (S)-1-(1-(3-chlorophenyl)-2-hydroxyethyl)-3-(1-(2-(cyclo-propyl-amino)-5-methyl-pyrimidin-4-yl)-1H-pyrazol-4-yl)urea] | – | – | > 2500 nM | > 2500 nM
7 | O=C(Nc1cnn(-c2ccnc(Nc3ccccc3Cl)n2)c1)N[C@@H](CO)c1ccccc1 [Example 4, (R)-1-(1-(2-((2-chlorophenyl)amino)pyrimidin-4-yl)-1H-pyrazol-4-yl)-3-(2-hydroxy-1-phenylethyl) urea] | – | – | > 2500 nM | > 2500 nM
8 | O=C(Nc1cnn(-c2ccnc(NC3CC3)n2)c1)N[C@H](CO)c1cccc(Cl)c1 [Example 6, (S)-1-(1-(3-chlorophenyl)-2-hydroxyethyl)-3-(1-(2-(cyclo-propyl-amino)pyrimidin-4-yl)-1H-pyrazol-4-yl)urea] | – | – | > 2500 nM | > 2500 nM
9 | O=C(Nc1cnn(-c2ccnc(Nc3ccccc3Cl)n2)c1)N[C@H](CO)c1ccccc1 [Example 7, (S)-1-(1-(2-((2-chlorophenyl)amino)pyrimidin-4-yl)-1H-pyrazol-4-yl)-3-(2-hydroxy-1-phenylethyl) urea] | – | – | > 2500 nM | > 2500 nM
10 | O=C(Nc1cnn(-c2ccnc(N[C@H]3CC[C@H](O)CC3)n2)c1)N[C@H](CO)c1cccc(Cl)c1 [Example 14, 1-((S)-1-(3-chlorophenyl)-2-hydroxy-ethyl)-3-(1-(2-((trans-4-hydroxycyclo-hexyl)amino)pyrimidin-4-yl)-1H-pyrazol-4-yl)urea] | – | – | – | > 2500 nM
11 | COc1cc(N2CCN(C(C)=O)CC2)ccc1Nc1nccc(-n2cc(NC(=O)N[C@H](CO)c3cccc(Cl)c3)cn2)n1 [Example 15, (S)-1-(1-(2-((4-(4-acetyl-piperazin-1-yl)-2-methoxy-phenyl)amino)pyrimidin-4-yl)-1H-pyrazol-4-yl)-3-(1-(3-chloro-phenyl)-2-hydroxyethyl) urea] | – | – | – | > 2500 nM
12 | O=C(Nc1cnn(-c2ccnc(NC3CC3)n2)c1)NC(CO)c1cccc(Cl)c1 (centres unmarked) [Example 16, 1-(1-(3-chlorophenyl)-2-hydroxy-ethyl)-3-(1-(2-(cyclo-propylamino)pyrimidin-4-yl)-1H-pyrazol-4-yl)urea] | – | – | – | > 2500 nM
13 | CN1CCN(c2ccc(Nc3nccc(-n4cc(NC(=O)N[C@H](CO)c5cccc(Cl)c5)cn4)n3)cc2)CC1 [Example 22, (S)-1-(1-(3-chlorophenyl)-2-hydroxy-ethyl)-3-(1-(2-((4-(4-methyl-piperazin-1-yl)-phenyl)amino)pyrimidin-4-yl)-1H-pyrazol-4-yl)urea] | – | – | > 2500 nM | > 2500 nM
14 | O=C(Nc1cnn(-c2ccnc(Nc3cccnc3)n2)c1)N[C@H](CO)c1cccc(Cl)c1 [Example 24, (S)-1-(1-(3-chlorophenyl)-2-hydroxy-ethyl)-3-(1-(2-(pyridin-3-yl-amino)pyrimidin-4-yl)-1H-pyrazol-4-yl)urea] | – | – | > 2500 nM | > 2500 nM
15 | O=C(Nc1cnn(-c2nc(NC3CC3)ncc2F)c1)N[C@H](CO)c1cccc(Cl)c1 [Example 30, (S)-1-(1-(3-chlorophenyl)-2-hydroxy-ethyl)-3-(1-(2-(cyclo-propyl-amino)-5-fluoro-pyrimidin-4-yl)-1H-pyrazol-4-yl)urea] | – | – | > 2500 nM | > 2500 nM
16 | O=C(Nc1cnn(-c2ccnc(Nc3ccccc3)c2)c1)NC(CO)c1cccc(Cl)c1 (centres unmarked) [Example 33, 1-(1-(3-chlorophenyl)-2-hydroxy-ethyl)-3-(1-(2-(phenyl-amino)-pyridin-4-yl)-1H-pyrazol-4-yl)urea] | – | – | – | > 2500 nM
17 | Cc1cnc(Nc2ccc(F)cc2Cl)nc1-n1cc(C(=O)N[C@H](CO)c2cccc(Cl)c2)cn1 [Example 35, (S)-1-(2-((2-chloro-4-fluoro-phenyl)amino)-5-methyl-pyrimidin-4-yl)-N-(1-(3-chloro-phenyl)-2-hydroxy-ethyl)-1H-pyrazole-4-carboxamide] | – | – | – | > 2500 nM
18 | Cc1cnc(Nc2ccc(F)cc2Cl)nc1-n1cc(NC(=O)NC(CO)c2cccc(Cl)c2)cn1 (centres unmarked) [Example 36, 1-(1-(2-((2-chloro-4-fluorophenyl)-amino)-5-methyl-pyrimidin-4-yl)-1H-pyrazol-4-yl)-3-(1-(3-chlorophenyl)-2-hydroxy-ethyl)urea] | – | – | – | > 2500 nM

More lines, now with the values ahead:

Row | IC50 ([1]; HT29 cells) | IC50 ([2]; HCT116 cells) | IC50 [1, 3] | IC50 [2, 4] | SMILES
19 | 100 to 250 nM | – | – | – | Cc1cnc(Nc2ccc(F)cc2)cc1-n1cnc(C(=O)NC(CN)c2ccccc2)c1 (single isomer, unassigned; enantiomer #1) [Example 227, N-(2-amino-1-phenylethyl)-1-(2-((4-fluorophenyl)amino)-5-methylpyridin-4-yl)-1H-imidazole-4-carboxamide, Enantiomer #1]
20 | – | ≤ 100 nM | – | – | Cc1cnc(NC2CCOCC2)nc1-n1cnc(C(=O)NC(CN)c2ccc(Cl)s2)c1 (single isomer, unassigned; enantiomer #1) [Example 290, N-(2-amino-1-(5-chlorothiophen-2-yl)ethyl)-1-(5-methyl-2-((tetrahydro-2H-pyran-4-yl)amino)pyrimidin-4-yl)-1H-imidazole-4-carboxamide (enantiomer #1)]
21 | – | – | > 2500 nM | 500 to 2500 nM | Cc1cnc(Nc2ccc3c(c2)OCO3)nc1-n1cc(NC(=O)NC(CO)c2cccc(Cl)c2)cn1 (centres unmarked) [Example 37, 1-(1-(2-(benzo[d][1,3]dioxol-5-ylamino)-5-methyl-pyrimidin-4-yl)-1H-pyrazol-4-yl)-3-(1-(3-chlorophenyl)-2-hydroxy-ethyl)urea]
22 | – | – | > 2500 nM | > 2500 nM | Cc1cnc(NC2CC2)nc1-n1cc(C(=O)NC(CO)c2cccc(Cl)c2)cn1 (centres unmarked) [Example 40, N-(1-(3-chlorophenyl)-2-hydroxy-ethyl)-1-(2-(cyclopropyl-amino)-5-methyl-pyrimidin-4-yl)-1H-pyrazole-4-carboxamide]
23 | – | – | > 2500 nM | > 2500 nM | Cc1cnc(Nc2ccc3c(c2)OCO3)nc1-n1cc(C(=O)NC(CO)c2cccc(Cl)c2)cn1 (centres unmarked) [Example 41, 1-(2-(benzo[d][1,3]dioxol-5-ylamino)-5-methyl-pyrimidin-4-yl)-N-(1-(3-chloro-phenyl)-2-hydroxy-ethyl)-1H-pyrazole-4-carboxamide]
24 | – | – | > 2500 nM | > 2500 nM | Cc1cnc(Nc2ccc3c(c2)OCO3)nc1-n1cc(NC(=O)N[C@H](CO)c2cccc(Cl)c2)cn1 [Example 44, (S)-1-(1-(2-(benzo[d][1,3]dioxol-5-ylamino)-5-methyl-pyrimidin-4-yl)-1H-pyrazol-4-yl)-3-(1-(3-chloro-phenyl)-2-hydroxy-ethyl)urea]
25 | – | – | > 2500 nM | > 2500 nM | Cc1cnc(Nc2ccc(F)cc2Cl)nc1-n1cc(C(=O)NC(CO)c2cccc(Cl)c2)cn1 (centres unmarked) [Example 45, 1-(2-((2-chloro-4-fluorophenyl)amino)-5-methyl-pyrimidin-4-yl)-N-(1-(3-chlorophenyl)-2-hydroxy-ethyl)-1H-pyrazole-4-carboxamide]
26 | – | – | > 2500 nM | > 2500 nM | O=C(NC(CO)c1cccc(Cl)c1)c1ccn(-c2ccnc(Nc3ccccc3)c2)c1 (centres unmarked) [Example 46, N-(1-(3-chloro-phenyl)-2-hydroxy-ethyl)-1-(2-(phenyl-amino)pyridin-4-yl)-1H-pyrrole-3-carboxamide]
27 | – | – | – | > 2500 nM | O=C(N[C@H](CO)c1cccc(Cl)c1)c1ccn(-c2ccnc(Nc3ccc(F)cc3Cl)n2)c1 [Example 112, (S)-1-(2-((2-chloro-4-fluorophenyl)-amino)pyrimidin-4-yl)-N-(1-(3-chlorophenyl)-2-hydroxy-ethyl)-1H-pyrrole-3-carboxamide]
28 | – | ≤ 100 nM | – | – | Cc1cnc(NC2CCOCC2)nc1-n1cnc(C(=O)NC(CN)c2ccc(Cl)s2)c1 (centres unmarked) [Example 274, N-(2-amino-1-(5-chlorothiophen-2-yl)ethyl)-1-(5-methyl-2-((tetrahydro-2H-pyran-4-yl)amino)pyrimidin-4-yl)-1H-imidazole-4-carboxamide]
